Assay results: US20160297761A1, “NOVEL INHIBITORS OF GLUTAMINASE” (RHIZEN PHARMACEUTICALS SA, priority 2014, published 2016)
Structures can show the parent of a compound that is named as a salt. Where two headings read alike, the source gives them in different places.

Target: T1, L-glutaminase present in mice brain homogenate (Glutaminase(Brain)) (Mus musculus, UniProt D3Z7P3)
T1 sequence (D3Z7P3 55-674): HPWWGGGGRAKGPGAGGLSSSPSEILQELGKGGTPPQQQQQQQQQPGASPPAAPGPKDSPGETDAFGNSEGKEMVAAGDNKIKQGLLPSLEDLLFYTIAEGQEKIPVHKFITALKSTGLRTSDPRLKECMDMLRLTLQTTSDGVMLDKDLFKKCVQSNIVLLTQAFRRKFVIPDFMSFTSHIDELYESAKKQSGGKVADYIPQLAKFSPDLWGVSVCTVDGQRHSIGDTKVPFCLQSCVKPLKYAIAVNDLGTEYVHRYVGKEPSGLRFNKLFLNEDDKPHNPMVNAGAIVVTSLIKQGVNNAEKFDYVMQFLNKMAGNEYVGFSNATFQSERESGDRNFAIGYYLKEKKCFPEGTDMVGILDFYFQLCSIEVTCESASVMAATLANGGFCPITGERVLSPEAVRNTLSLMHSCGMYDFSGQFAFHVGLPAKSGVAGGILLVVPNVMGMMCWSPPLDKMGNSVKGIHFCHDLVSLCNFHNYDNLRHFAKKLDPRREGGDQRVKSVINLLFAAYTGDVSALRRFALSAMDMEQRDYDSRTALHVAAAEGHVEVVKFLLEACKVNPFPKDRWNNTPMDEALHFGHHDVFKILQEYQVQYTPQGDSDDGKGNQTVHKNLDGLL
Experiment: Glutaminase enzyme activity using glutaminase enzyme from mice brain/kidney homogenate (Nessler's reagent, ammonia)
Format: biochemical
Conditions: for inhibition at 0.1 µM: read-out: Glutaminase(Brain) activity % inhibition 0.1 μM; for inhibition at 1 µM: read-out: Glutaminase(Brain) activity % inhibition @1 μM
Protocol: Assay 3: Determination of Glutaminase Enzyme Activity Using Glutaminase
Enzyme from Mice Brain/Kidney
Step 1: Preparation of Tissue Homogenates: Male Balb/c mice were administered 0.28 M ammonium chloride in drinking water for 7 days. The animals were sacrificed and brain/kidney organs collected on dry ice. […] The tissue was homogenized and supernatants were stored at −80° C. until the enzyme assay was performed.
Aim: Compounds were assessed for their ability to inhibit the enzymatic activity of L-glutaminase present in mice brain/kidney homogenate.
Protocol: The assay was performed using a colorimetric method using Nessler's Reagent by quantifying the amount of ammonia formed as a by product during the enzymatic conversion of L-glutamine to glutamate. In the routine assay, 16 μl of tissue homogenate is added to 33 μl of Tris-Hcl phosphate buffer (pH 8) along with 1 μl of DMSO/test compound containing the desired final concentration and vortexed briefly. 50 μl of 20 mM L-glutamine Tris buffer is added to start the reaction and incubated for 15 minutes at 37° C. The ammonia formed is detected by adding 20 μl of reaction mixture to cold water in a 96 well plate followed by 20 μl of Nessler's reagent. The colour developed is measured at 450 nm. Data Analysis: Activity of the test compound is reported as % inhibition and the data is analyzed using Graphpad Prism (Graphpad software; San Diego Calif.) for IC50 determination.

Structure (SMILES) | inhibition at 0.1 µM (0.1 μM, mice brain homogenate) [%] | inhibition at 1 µM (1 μM, mice brain homogenate) [%] | inhibition at 0.1 µM [%] | inhibition at 1 µM [%]
COc1ccccc1CC(=O)Nc1nnc(CCC#Cc2ccc(NC(=O)Cc3ccccc3Cl)nc2)s1 [Example 1, 2-(2-Chlorophenyl)-N-{5-[4-(5-(2-(2-methoxyphenyl)acetamido)-1,3,4-thiadiazol-2-yl)but-1-ynyl]pyridin-2-yl}acetamide] | 25 to 50 | 75 to 100 |  | 
COc1ccccc1CC(=O)Nc1nnc(CCCCc2ccc(NC(=O)Cc3ccccc3Cl)nc2)s1 [Example 2, 2-(2-Chlorophenyl)-N-{5-[4-(5-(2-(2-methoxyphenyl)acetamido)-1,3,4-thiadiazol-2-yl)butyl]pyridin-2-yl}acetamide] | 50 to 75 | 75 to 100 |  | 
O=C(Cc1cccc(OC(F)(F)F)c1)Nc1ccc(CCCCc2nnc(NC(=O)Cc3ccccn3)s2)nc1 [Example-4, 2-(Pyridin-2-yl)-N-(5-(4-(5-(2-(3-(trifluoromethoxy)phenyl)acetamido)pyridin-2-yl)butyl)-1,3,4-thiadiazol-2-yl)acetamide] | < 25 |  |  | 
O=C(Cc1cccc(OC(F)(F)F)c1)Nc1ccc(CCCCc2nnc(NC(=O)Cc3cccnc3)s2)nc1 [Example-5, 2-(Pyridin-3-yl)-N-(5-(4-(5-(2-(3-(trifluoromethoxy)phenyl)acetamido)pyridin-2-yl)butyl)-1,3,4-thiadiazol-2-yl)acetamide] | < 25 | < 25 |  | 
O=C(Cc1cccc(OC(F)(F)F)c1)Nc1cnc(CCCCc2nnc(NC(=O)Cc3ccccn3)s2)cn1 [Example-6, 2-(Pyridin-2-yl)-N-(5-(4-(5-(2-(3-(trifluoromethoxy)phenyl)acetamido)pyrazin-2-yl)butyl)-1,3,4-thiadiazol-2-yl)acetamide] |  |  | < 25 | 25 to 50
O=C(Cc1cccc(OC(F)(F)F)c1)Nc1ncc(CCCCc2nnc(NC(=O)Cc3ccccn3)s2)cn1 [Example-7, 2-(Pyridin-2-yl)-N-(5-(4-(2-(2-(3-(trifluoromethoxy)phenyl)acetamido)pyrimidin-5-yl)butyl)-1,3,4-thiadiazol-2-yl)acetamide] | < 25 | 25 to 50 |  | 
O=C(Cc1cccnc1)Nc1ccc(CCCCc2nnc(NC(=O)Cc3ccccc3Cl)s2)cn1 [Example-12, 2-(2-Chlorophenyl)-N-(5-(4-(6-(2-(pyridin-3-yl)acetamido)pyridin-3-yl)butyl)-1,3,4-thiadiazol-2-yl) acetamide] | 75 to 100 | 75 to 100 |  | 
CS(=O)(=O)c1cccc(CC(=O)Nc2nnc(CCCCc3ccc(NC(=O)Cc4cccnc4)nc3)s2)c1 [Example-13, 2-(3-(Methylsulfonyl)phenyl)-N-(5-(4-(6-(2-(pyridin-3-yl)acetamido)pyridin-3-yl)butyl)-1,3,4-thiadiazol-2-yl)acetamide] | 75 to 100 | 75 to 100 |  | 
CS(=O)(=O)c1ccc(CC(=O)Nc2nnc(CCCCc3ccc(NC(=O)Cc4cccnc4)nc3)s2)cc1 [Example-14, 2-(4-(Methylsulfonyl)phenyl)-N-(5-(4-(6-(2-(pyridin-3-yl)acetamido)pyridin-3-yl)butyl)-1,3,4-thiadiazol-2-yl)acetamide] | 75 to 100 | 75 to 100 |  | 
O=C(Cc1cccnc1)Nc1ccc(CCCCc2nnc(NC(=O)Cc3cccnc3)s2)cn1 [Example-15, 2-(Pyridin-3-yl)-N-(5-(4-(5-(2-(pyridin-3-yl)acetamido)-1,3,4-thiadiazol-2-yl)butyl)pyridin-2-yl)acetamide] | 50 to 75 | 75 to 100 |  | 
O=C(Cc1cccnc1)Nc1ccc(CCCCc2nnc(NC(=O)Cc3ccccc3F)s2)cn1 [Example-19, 2-(2-Fluorophenyl)-N-(5-(4-(6-(2-(pyridin-3-yl)acetamido)pyridin-3-yl)butyl)-1,3,4-thiadiazol-2-yl)acetamide] | 50 to 75 | 75 to 100 |  | 
O=C(Cc1ccccc1Cl)Nc1ccc(CCCCc2nnc(NC(=O)Cc3ccccn3)s2)cn1 [Example-25, 2-(2-Chlorophenyl)-N-(5-(4-(5-(2-(pyridin-2-yl)acetamido)-1,3,4-thiadiazol-2-yl)butyl)pyridin-2-yl)acetamide] | < 25 | 50 to 75 |  | 
O=C(Cc1ccccc1Cl)Nc1ccc(CCCCc2nnc(NC(=O)Cc3cccnc3)s2)cn1 [Example-26, 2-(2-Chlorophenyl)-N-(5-(4-(5-(2-(pyridin-3-yl)acetamido)-1,3,4-thiadiazol-2-yl)butyl)pyridin-2-yl)acetamide] | 50 to 75 | 75 to 100 |  | 
CC(C)(C)OC(=O)N1CCC(c2ccc(CC(=O)Nc3nnc(CCCCc4ccc(NC(=O)Cc5cccc(OC(F)(F)F)c5)nc4)s3)cc2)CC1 [Example-33, Tert-butyl 4-(4-(2-oxo-2-(5-(4-(6-(2-(3-(trifluoromethoxy)phenyl)acetamido)pyridin-3-yl)butyl)-1,3,4-thiadiazol-2-ylamino)ethyl)phenyl)piperidine-1-carboxylate] | < 25 | 25 to 50 |  | 
O=C(Cc1cccc(OC(F)(F)F)c1)Nc1ccc(CCCCc2nnc(NC(=O)Cc3ccc(C4CCNCC4)cc3)s2)cn1 [Example-34, 2-(4-(Piperidin-4-yl)phenyl)-N-(5-(4-(6-(2-(3-(trifluoromethoxy)phenyl)acetamido)pyridin-3-yl)butyl)-1,3,4-thiadiazol-2-yl)acetamide hydrochloride] |  |  | < 25 | 25 to 50
O=C(Cc1cccc(OC(F)(F)F)c1)Nc1ccc(CCCCc2nnc(NC(=O)Cn3nc(C(F)(F)F)cc3C(F)(F)F)s2)cn1 [Example-35, 2-(3,5-Bis(trifluoromethyl)-1H-pyrazol-1-yl)-N-(5-(4-(6-(2-(3-(trifluoromethoxy)phenyl)acetamido)pyridin-3-yl)butyl)-1,3,4-thiadiazol-2-yl)acetamide] | < 25 | < 25 |  | 
O=C(Cc1cccc(OC(F)(F)F)c1)Nc1ccc(CCCCc2nnc(NC(=O)Cc3cccc(C4CCNCC4)c3)s2)cn1 [Example-36, 2-(3-(Piperidin-4-yl)phenyl)-N-(5-(4-(6-(2-(3-(trifluoromethoxy)phenyl)acetamido)pyridin-3-yl)butyl)-1,3,4-thiadiazol-2-yl)acetamide hydrochloride] |  |  | 25 to 50 | 25 to 50
CS(=O)(=O)Nc1cccc(CC(=O)Nc2nnc(CCCCc3ccc(NC(=O)Cc4cccc(OC(F)(F)F)c4)nc3F)s2)c1 [Example-39, N-(6-Fluoro-5-(4-(5-(2-(3-(methylsulfonamido)phenyl)acetamido)-1,3,4-thiadiazol-2-yl)butyl)pyridin-2-yl)-2-(3-(trifluoromethoxy)phenyl)acetamide] | 25 to 50 | 75 to 100 |  | 
O=C(Cc1ccccn1)Nc1nnc(CC2CCC(Cc3nnc(NC(=O)Cc4ccccn4)s3)CC2)s1 (stereo not drawn) [Example-106, N,N′-(5, 5′-(Cyclohexane-1,4-diylbis(methylene))bis(1,3,4-thiadiazole-5,2-diyl))bis(2-(pyridin-2-yl)acetamide)] | < 25 | 25 to 50 |  | 
O=C(Cc1cccc(OC(F)(F)F)c1)Nc1ccc(CC2CC(c3nnc(NC(=O)Cc4ccccn4)s3)C2)nn1 (stereo not drawn) [Example-110, 2-(Pyridin-2-yl)-N-(5-(3-((6-(2-(3-(trifluoromethoxy)phenyl)acetamido)pyridazin-3-yl)methyl)cyclobutyl)-1,3,4-thiadiazol-2-yl)acetamide] |  |  | 75 to 100 | 75 to 100
